Measured values from patent publication US10376486B2, “Compositions and methods for reactivating latent viral infections” (priority 2014, dated 2019).

How the values were obtained:
Assay type in all cases: cell-based
J-Lat A1 cells = assay: Cell viability of J-Lat A1 cells by Live/Dead dye staining; settings: 2-40 nM PEP005
Description: (§1) FIG. 1: PEP005 induces reactivation of HIV latency in vitro. J-Lat A1 cells were exposed to different concentrations of PEP005 and virus reactivation was measured by GFP expression using flow cytometry. Cell viability was determined by Live/Dead dye staining. (A) Chemical Structure of PEP005. […] (D) PEP005 potently reactivates latent HIV in cell lines compared with other LRAs. J-Lat A1 cells were treated with 10 nM PEP005, 500 nM SAHA, 2 μM JQ1, 2 μM GSK343, 10 ng/ml TNF, 2 μM Prostratin, or 5 ng/ml PMA for 24 hours and the percentage of GFP expression was evaluated using flow cytometry. *, p<0.05; **, p<0.01.
J-Lat A1 cells (harboring a single copy of latent HIV LTR and one copy of green fluorescent protein gene under the HIV LTR control) or U1 cells (harboring two latent HIV genomes with defective Tat gene) were cultured in RPMI1640 medium with 10% fetal bovine serum (FBS) and 1% Pen/strep in a 37° C. incubator containing 5% CO2 [24,31]. Both of the cell lines were obtained from NIH AIDS Reagent Program. […] HIV reactivation was quantified by GFP expression using flow cytometry and the data were analyzed using FlowJo Software for J-Lat A1 cells, or by quantitative RT-PCR (RT-qPCR) for J-Lat A1 and U1 cells. Cell viability was evaluated using Live/Dead dye (Life Technologies) by flow cytometry. […]

[1] = tested on: latent HIV in J-Lat A1 cells; assay: HIV latency reactivation in J-Lat A1 cells (GFP expression by flow cytometry)
Description: as §1
FIG. 2: PEP005 synergizes with other latency reversing agents in reactivating latent HIV. (A) J-Lat A1 cells were treated with 5 ng/ml PMA, 6 nM PEP005, 500 nM SAHA, 2 μM JQ1, 2 μM GSK343, or 10 μM Prostratin alone or in combination with 6 nM PEP005 for 24 hours and the percentage of GFP expressing cells was determined using flow cytometry. **, p<0.01; *, p<0.05 compared with control treatment; **, p<0.01; *, p<0.05 compared with PEP005 treatment alone. (B) The U1 cells were treated with 5 ng/ml PMA, 6 nM PEP005, 500 nM SAHA, 2 μM JQ1, or 2 μM GSK343, alone or in combination with 6 nM PEP005 for 24 hours and the HIV transcription was evaluated using RT-qPCR. Numbers indicate fold-increase over the control. **, p<0.01; *, p<0.05 compared with control treatment; **, p<0.01; *, p<0.05 compared with PEP005 treatment alone. […] The Bliss independence model was utilized for calculation of synergy for LRA combinations. Dotted horizontal line signifies pure additive effect (Δfaxy=0). Synergy is defined as Δfaxy>0 while Δfaxy<0 indicates antagonism. Statistical significance was determined using a one tailed ratio t-test comparing predicted and observed drug combination effects. *p<0.05; **p<0.01.
J-Lat A1 cells (harboring a single copy of latent HIV LTR and one copy of green fluorescent protein gene under the HIV LTR control) or U1 cells (harboring two latent HIV genomes with defective Tat gene) were cultured in RPMI1640 medium with 10% fetal bovine serum (FBS) and 1% Pen/strep in a 37° C. incubator containing 5% CO2 [24,31]. Both of the cell lines were obtained from NIH AIDS Reagent Program. For reactivation of HIV LTR, cells were treated with PMA (Sigma), JQ1 (Biovision), Prostatin (Sigma), SAHA (Santa Cruz), TNF-α (BD), GSK343 (Sigma), or PEP005 (Tocris Bioscience) for 24 h. HIV reactivation was quantified by GFP expression using flow cytometry and the data were analyzed using FlowJo Software for J-Lat A1 cells, or by quantitative RT-PCR (RT-qPCR) for J-Lat A1 and U1 cells. Cell viability was evaluated using Live/Dead dye (Life Technologies) by flow cytometry. So far, there is not a single in vitro cell culture model available that captures all the features of HIV latency. However, PKC agonists seem to reactivate latent HIV in all the cell culture models of viral latency. Similar to other J-Lat cell lines, the J-Lat A1 clone has been widely used by researchers for HIV latency studies. The T-cell-derived J-Lat A1 cells harbor one copy of a construct containing a Tat and a green fluorescent protein (GFP) gene framed by the 5′ and 3′ HIV LTR [32]. The J-Lat A1 cells also contain the TAR loop located within the R region of HIV LTR (nt +1 to +60), which provides an opportunity for Tat-TAR interactions for the modulation of transcription and transcriptional elongation. […]

[2] = tested on: J-Lat A1 cells, U1 cells, primary CD4+ T cells; assay: Cell viability by MTT assay; settings: J-Lat A1 and U1 cell lines, 12 nM PEP005, 24 hours
Description: FIG. 7: PEP005 causes minimal cytotoxicity and T cell proliferation. To evaluate the impact of PEP005 on the cell viability, U1 cells (A), J-Lat A1 cells (B) and CD4+ T cells (C) were treated with 12 nM of PEP005 for 24 hours, the cell viability was examined with the MTT assay and the S-phase cell cycle progression was evaluated after BrdU incorporation using BrdU ELISA. 25-50 μM Etoposide or 100-150 μM Doxorubicin (Doxo) served as positive controls for MTT and BrdU assays respectively. Statistical analysis was performed in comparison with controls. **, p<0.01.
Cells were placed in 96-well plates and incubated for 24 or 72 h hrs with compounds. Cell viability was measured using MTT assay (Roche Laboratories), and cell proliferation/S-phase progression was determined by using BrdU ELISA kit (Cell signaling, #1863).

SMILES: C/C=C(/C)C(=O)O[C@H]1C(C)=C[C@]23C(=O)[C@@H](C=C(CO)[C@@H](O)[C@]12O)[C@H]1[C@@H](C[C@H]3C)C1(C)C [PEP005, (1aR,2S,5R,5aS,6S,8aS,9R,10aR)-5,5a-Dihydroxy-4-(hydroxymethyl)-1,1,7,9-tetramethyl-11-oxo-1a,2,5,5a,6,9,10,10a-octahydro-1H-2,8a-methanocyclopenta[a]cyclpropa[e][10]annulen-6-yl (2Z)-2-methylbut-2-enoate]
- cellular toxicity (J-Lat A1 cells): absence of any apparent cellular toxicity
- concentration at which effect on HIV expression was evident [1]: 2 nM
- HIV reactivation compared to other compounds known to reactivate HIV ([1]; 10 nM PEP005 vs 500 nM SAHA, 2 μM JQ1, 2 μM GSK343, 2 μM Prostratin, 5 ng/ml PMA, 24 h): more potent than SAHA
- increase in the reactivation of HIV latency compared to untreated controls ([1]; 20 nM PEP005): 7 fold
- induction of HIV expression, agent alone ([1]; GFP, 24 h, PEP005 2-40 nM, GSK343 2 μM): dose-dependent manner
- cellular toxicity (MTT) [2]: minimal levels of cellular toxicity
